Test system: hexokinase from Saccharomyces cerevisiae
Assay: initial rates of ADP generation monitored with 5-ATR-ParM biosensor
Assay type: biochemical
Settings: read-out: KM^glucose; 1 mM ATP, 50 mM Tris-HCl pH 7.5, 25 mM KCl, 10 mM MgCl2, 20 °C

Km: 180 ± 9 µM
Compound: OC[C@H]1OC(O)[C@H](O)[C@@H](O)[C@@H]1O (stereo partly drawn) [D-glucose]
